Measurements taken from patent US20180011102A1, “THE PROTEIN KINASE ACTIVITY OF PHOSPHOGLYCERATE KINASE 1 AS A TARGET FOR CANCER TREATMENT AND DIAGNOSIS” (Board of Regents, The University of Texas System, priority 2015, published 2018).
“Also recorded” adds a separate entry of the source.

Legend:
PDH = assay: Immunoblotting of hypoxia-induced PDH phosphorylation; type: cell-based, human; settings: U87 and U251 cells expressing PGK1 shRNA, hypoxia 6 h
Procedure: FIGS. 5A-E. PDHK1 Phosphorylation by PGK1 Activates PDHK1. Immunoblotting analyses were performed with the indicated antibodies. FIG. 5A. Bacterially purified His-PDH with purified WT PDHK1 or PDHK1 T338A was mixed with purified WT PGK1 or PGK1 T378P. In vitro phosphorylation analyses were performed. FIG. 5B. […] FIG. 5C. U87 and U251 cells expressing PDHK1 shRNA with or without reconstituted expression of WT rPDHK1 or rPDHK1 T338A were stimulated with or without hypoxia for 6 h. FIG. 5D. […] FIG. 5E.

histone H3 at Ser10 = assay: Western blot of EGF-induced histone H3 S10 phosphorylation; type: cell-based, human; settings: U87 cells expressing PGK1 shRNA, EGF stimulation
PDH complex = settings: isolated mitochondria of U87 cells with PGK1 shRNA, hypoxia 6 h
Procedure: U87 cells with or without PGK1 shRNA and with or without reconstituted expression of WT rPGK1 or rPGK1 S203A were stimulated with or without hypoxia for 6 h. Mitochondrial fractions of the cells were prepared and activity of PDH complex-mediated conversion of ^14C-labeled pyruvate into ^14C-labeled CO2 was measured. Data represent the means±SD of three independent experiments. *p<0.01.
The [1-^14C]-pyruvate conversion assay was performed as previously described (Pezzato et al., 2009) with minor modification. Briefly, ^14CO2 production through the PDH complex was measured using isolated mitochondria (1 mg) in the 1 ml mitochondria resuspension buffer (200 mM sucrose, 10 mM Hepes [pH 7.4], 5 mM malate, 2 mM monosodium phosphate, 2 mM ADP, 1 mM EGTA) containing [1-^14C]-pyruvate (0.1 μCi/ml). The incubation mixture in a 2-ml Eppendorf tube was placed at the bottom of a 20-ml scintillation vial with a foil-lined screw cap and maintained in agitation. The ^14CO2 produced during incubation was trapped by 1 ml of hyamine hydroxide at the bottom of the scintillation vial. […] Then, 19 ml of scintillator liquid was added to each scintillation vial and radioactivity was measured on a scintillation counter. The results were normalized based on mitochondrial protein levels measured by Bradford assay using bovine serum albumin as the standard.

PDHK1 T338 = assay: Immunoblotting of hypoxia-induced PDHK1 T338 phosphorylation; type: cell-based, human; settings: U87 and U251 cells with PGK1 shRNA, hypoxia 6 h
Procedure: FIGS. 14A-P. Mitochondrial PGK1 Phosphorylates PDHK1 at T338. FIG. 14A. […] Immunoblotting analyses were performed with the indicated antibodies. FIG. 14B. U87 cells (left panel) or U87/EGFR (right panel) cells expressing PGK1 shRNA with or without reconstituted expression of WT rPGK1 and the indicated mutants were stimulated with or without hypoxia for 6 h (left panel) or EGF (100 ng/ml) (right panel) for 6 h. These cells were incubated with [1-^14C]-pyruvate for 2 h. [1-^14C]CO2 production rates were measured. FIG. 14C. U87 cells expressing SFB-PDHK1, SFB-PDHK2, SFB-PDHK3, or SFB-PDHK4 were stimulated with or without hypoxia for 6 h. Mitochondrial fractions of these cells were prepared. SFB pull-down analyses with streptavidin-conjugated beads were performed. Immunoblotting analyses were performed with the indicated antibodies. FIG. 14D. […] Phospho-amino acid analysis of gel-isolated ^32P-phosphorylated SUMO-PDHK1 was performed. […] On the autoradiogram in the right hand panel, the green circle indicates pSer; the red circle indicates pThr; and the black circle indicates pTyr. FIG. 14E. […] FIG. 14F. […] ATP concentrations in mitoplast isolated from U87 or U251 cells treated with or without hypoxia for 6 h were measured. […] The glycolytic activities of bacterially purified WT PGK1, PGK1 T378P, PGK1 S203A, and PGK1 R39/K41A were measured. […]

Q: For “PGK1 shRNA: pGIPZ PGK1 shRNA generated with GGATGTCTATGTCAATGATGC (SEQ ID NO: 4)”, which “hypoxia-induced PDH phosphorylation” value (PDH) is on record?
A: Its value is “blocked”.

Q: And the “EGF-induced phosphorylation of histone H3 at Ser10” value (histone H3 at Ser10)?
A: The value was “blocked; also recorded: greatly diminished”.

Q: What about the “hypoxia-induced suppression of conversion of pyruvate to CO2” value (PDH complex) of the same substance?
A: Its value is “significantly counteracted”.

Q: And the “hypoxia-induced PDHK1 T338 phosphorylation” value (PDHK1 T338)?
A: Its value is “blocked”.
